Laboratory results from patent US10365286B2, “Chromophoric structures for lanthanide chelates” (RADIOMETER TURKU OY, priority 2014, dated 2019).

Legend:
[1] = Luminescence measurements of Eu(III) chelates with the ligands; type: physicochemical; conditions: Eu(III) complex of the ligand; 10 mM NH3-HCl buffer, pH 8.3
Method: FC=Flash chromatography. RT=room temperature. Microwave synthesizer was Initiator system (Biotage). ^1H NMR and ^13C NMR spectra were recorded on a Bruker AVANCE 500 DRX (Bruker, Karlsruhe, Germany) by using SiMe4 as internal standard and chemical shifts δ are in ppm. Mass spectra were recoded on a Voyager DE Pro (Applied Biosystems, Foster City, Calif.) mass spectrometer. HPLC runs were performed by Dionex's Ultimate 3000 system including Dionex's Ultimate 3000 Diode Array Detector. The used column was ThermoHypersil 150×4 mm 5μ Hypersil® ODS. Used eluents were 100 mM TEAA and CH3CN. Runs were performed by using an eluent gradient starting from 75% H2O, 20% 100 mM TEAA and 5% CH3CN and within 30 min to 30% H2O, 20% TEAA and 50% CH3CN. For the HPLC, sample concentration was aprox. 1 mg of chelate in 1 ml water. The sampling volume was 20-25 μl. The instrumentation, measurement and calculation principles for the molar absorptivities (ε), excitation maxima (λexc), luminescence lifetimes (τ), quantum yields (Φ), and triplet stage energies (T) see e.g. Räsänen, M., et al., 2014, J. Luminescence, 146, 211-217.
The luminescence parameters for Eu(III) complexes with ligands 11, 12, 14, 27, 28, and 35 were measured in 10 mM NH3-HCl buffer, pH 8.3. The molar absorptivities (c), excitation maxima (λexc ), luminescence lifetimes (τ), quantum yields (Φ), calculated luminescence yields (ε×Φ) and triplet stage (T) are presented in Table 1.

[2] = Photo-physical properties of chelates conjugated to taurine; type: physicochemical; conditions: 50 mM TRIS buffer (pH 7.75)
Method: The prepared isothiocyante activated chelates (65 and 79) were conjugated to taurine as described above in Example 68. The products were purified with semi-preparative reversed phase HPLC (RP-18 column). After the product fractions were evaporated the residues were dissolved in 50 mM TRIS buffer.
The measured photo-physical properties excitation wavelengths (λexc), luminescence decay times (τ), molar absorptivities (ε), estimated luminescence yields (εΦ) of the novel chelates (66 and 80) in 50 mM TRIS buffer (pH 7.75) are in the Table 3. The nine dentate label {2,2′,2″,2′″-{[2-(4-isothiocyanato-phenyl)ethylimino]bis(methylene)bis{4-{[4-(α-galactopyranoxy)phenyl]-ethynyl}bis(methylenenitrilo)}tetrakis(acetato)}-europium(III) (von Loden, P., et al., 2003, Anal. Chem. 75, 3193) was used as a reference label.

cTnI = assay: Model cTnI immunoassay with chelate-labelled detection antibodies; conditions: for Abs max: antibody labelled with the chelate
Method: Labeling was performed in 10 mM botate buffer, pH 8.6-9.0 using 30-fold molar excess of chelates. Reactions were normally carried out overnight at +4° C. or at room temperature. Labeled antibodies were purified on Superfex 200 HR 10/30 or Superdex 200 HiLoad 26/60 gel filtration columns using Tris-saline-azide […], 9.0 g/L NaCl, and 0.5 g/L NaN3), pH 7.75 as an elution buffer. The fractions containing the antibody were pooled and the europium concentrations measured against europium calibrator. The purified antibody comjugate and the labeling ratio (i.e. chelates per protein) were quantified by calculating the protein yield or by measureing the absorbance at 280 nm and subtracting the absorption caused by the added chelate.
An earlier published nine dentate label {2,2′,2″,2′″-{[2-(4-isothiocyanato-phenyl)ethylimino]bis(methylene)bis{4-{[4-(α-galactopyranoxy)phenyl]ethynyl}-pyridine-bis(methylenenitrilo)}tetrakis(acetato)}europium(III) (von Loden, P., et al., 2003, Anal. Chem. 75, 3193) was used as a reference label.
Two labels 49 and 54 were tested in a model cTnl assay. The cTnl immunoassays were performed by using biotinylated capture cTnl antibodies together with the labelled cTnl detection antibodies described above and according to the main principles described in published method (von Loden, P., et al., 2003, Anal. Chem. 75, 3193). The combined assay/wash buffer contained 5 mmol HEPES, 2.1 g/L NaCl, 0.1 mmol EDTA, 0.055 g/L Tween 20 and 1 g/L Gernall II, pH 7.75. The capture biotinylated antibodies were pre-incubated in assay wells. The standards followed by the detection label antibody diluted in 20 μl and 10 μl assay buffer, respectively, were applied to the wells. After one hour incubation at 36 C, the wells were washed, dried and measured.

[3] = Photo-physical properties of cTnI antibodies labelled with chelate; type: physicochemical
Method: The Tnl labeled antibodies were prepared as described in Example 61.
The measured photo-physical properties gave the excitation wavelengths (λexc)at 354 nm, a luminescence decay times (τ) of 460 μs molar absorptivities (c) of 142 000 cm^−1M^−1 and luminescence yields (εΦ) of 10 500 cm^−1M^− for the labelled cTnls with the chelate 66 in 50 mM TRIS buffer (pH 7.75)
Dry measurements gave the luminescence yield of 16 500 cm^−1M^−1, which represents estimated luminescence yields based on the signal measurements after dry immunoassay done as described in the Example 61.

[4] = labelled cTnI antibodies, 50 mM TRIS buffer (pH 7.75)

Row | Structure (SMILES) | calculated luminescence yield ε × Φ [1] | excitation maximum λexc [1] [nm] | luminescence lifetime τ [1] [μs] | molar absorptivity ε [1] | quantum yield Φ [1] | triplet stage T [1] | other results
1 | O=C(O)CN(CC(=O)O)Cc1cc(C#Cc2ccccc2)cc(CN(CC(=O)O)CC(=O)O)n1 [Ref ligand, 2,2′,2″,2′″-[(4-phenylethynylpyridine-2,6-diyl)bis(methylenenitrilo)]tetrakis-(acetic acid), reference compound] | 1 800 cm^−1M^−1 | 293 | 385 | 26 950 cm^−1M^−1 | 0.067 | 21 600 cm^−1 | –
2 | O=C([O-])COc1cc(OCC(=O)[O-])c(C#Cc2cc(CN(CC(=O)[O-])Cc3cc(C#Cc4ccc5c(c4)C(CC(=O)[O-])(CC(=O)[O-])c4cc(NC(=S)NCCS(=O)(=O)[O-])ccc4-5)cc(CN(CC(=O)[O-])Cc4cc(C#Cc5c(OCC(=O)[O-])cc(OCC(=O)[O-])cc5OCC(=O)[O-])cc(C(=O)[O-])n4)n3)nc(C(=O)[O-])c2)c(OCC(=O)[O-])c1.[Eu+3].[Na+].[Na+].[Na+].[Na+].[Na+].[Na+].[Na+].[Na+].[Na+].[Na+] [Compound 80] | – | – | – | – | – | – | estimated luminescence yield ε x Φ [2]: 5 600 cm^−1M^−1; excitation wavelength λexc [2]: 354 nm; luminescence decay time τ [2]: 290 μs; molar absorptivity ε [2]: 105 000 cm^−1M^−1
3 | O=C([O-])CN(CC(=O)[O-])Cc1cc(C#Cc2ccc3c(c2)C(CC(=O)[O-])(CC(=O)[O-])c2ccccc2-3)cc(CN(CCc2ccc(N=C=S)cc2)Cc2cc(C#Cc3ccc4c(c3)C(CC(=O)[O-])(CC(=O)[O-])c3ccccc3-4)cc(CN(CC(=O)[O-])CC(=O)[O-])n2)n1.[Eu+3].[Na+].[Na+].[Na+].[Na+].[Na+] [Compound 49] | – | – | – | – | – | – | Abs max (cTnI; First test): 348 nm; excitation after coupled in protein (cTnI; label coupled to protein, broad excitation): around 350 nm
4 | O=C([O-])CN(CC(=O)[O-])Cc1cc(-c2ccc3c(c2)C(CC(=O)[O-])(CC(=O)[O-])c2ccccc2-3)cc(CN(CCc2ccc(N=C=S)cc2)Cc2cc(-c3ccc4c(c3)C(CC(=O)[O-])(CC(=O)[O-])c3ccccc3-4)cc(CN(CC(=O)[O-])CC(=O)[O-])n2)n1.[Eu+3].[Na+].[Na+].[Na+].[Na+].[Na+] [Compound 54] | – | – | – | – | – | – | Abs max (cTnI; Second test): 327 nm
5 | O=C(O)CN(CC(=O)O)Cc1cc(C#Cc2ccc3c(c2)C(CC(=O)O)(CC(=O)O)c2ccccc2-3)cc(CN(CC(=O)O)CC(=O)O)n1 [Compound 14] | 4 200 cm^−1M^−1 | 342 | 355 | 38 200 cm^−1M^−1 | 0.11 | 19 200 cm^−1 | –
6 | O=C([O-])COc1cc(NC(=S)NCCS(=O)(=O)[O-])ccc1C#Cc1cc(CN(CC(=O)[O-])Cc2cc(C#Cc3ccc4c(c3)C(CC(=O)[O-])(CC(=O)[O-])c3ccccc3-4)cc(C(=O)[O-])n2)nc(CN(CC(=O)[O-])Cc2cc(C#Cc3ccc4c(c3)C(CC(=O)[O-])(CC(=O)[O-])c3ccccc3-4)cc(C(=O)[O-])n2)c1.[Eu+3].[Na+].[Na+].[Na+].[Na+].[Na+].[Na+].[Na+] [Compound 66] | – | – | – | – | – | – | estimated luminescence yield ε x Φ [2]: 8 700 cm^−1M^−1; excitation wavelength λexc [2]: 346 nm; luminescence decay time τ [2]: 540 μs; molar absorptivity ε [2]: 100 000 cm^−1M^−1; luminescence yield, dry measurements ([3]; estimated from signal measurements after dry immunoassay): 16 500 cm^−1M^−1; excitation wavelength λexc [3, 4]: 354 nm; luminescence decay time τ [3, 4]: 460 μs; luminescence yield εΦ [3, 4]: 10 500 cm^−1M^−; molar absorptivity [3, 4]: 142 000 cm^−1M^−1
7 | O=C(O)CN(CC(=O)O)Cc1cc(-c2ccc3c(c2)C(CC(=O)O)(CC(=O)O)c2ccccc2-3)cc(CN(CC(=O)O)CC(=O)O)n1 [Compound 12] | 3 500 cm^−1M^−1 | 328 | 390 | 35 000 cm^−1M^−1 | 0.10 | 20 100 cm^−1 | –
8 | O=C(O)CN(CC(=O)O)Cc1cc(-c2ccc3c(c2)Cc2ccccc2-3)cc(CN(CC(=O)O)CC(=O)O)n1 [Compound 11] | 4 800 cm^−1M^−1 | 323 | 380 | 104 000 cm^−1M^−1 | 0.046 | 20 000 cm^−1 | –
